Converted amounts (≈) assume the structure as drawn. Read-outs that look alike come from different tables or passages of the source.
Legend:
[1] = target: Mcl-1 protein (residues 171-323) (Homo sapiens (Human), UniProt Q07820); experiment: Inhibition of Mcl-1 by fluorescence polarization (FP) competitive binding assay with FAM-Bid tracer; settings: 2 nM FAM-Bid, 20 nM Mcl-1, 30 min, read-out: Mc1-1 (FP)
Outline: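 Competitive FP binding of compounds against FAM-Bid tracer (final 2 nM) on Mcl-1 (final 20 nM) in PBS with 0.01% BGG and 0.01% Triton X-100, 5% final DMSO.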

OPM-2 cells = experiment: Cell viability assay (OPM-2 cells), CCK-8; assay type: cell-based; settings: 5% FBS
Outline: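 OPM-2 myeloma cells (20000/well) incubated with serially diluted compound for 24 h at 37 °C, 5% CO2. Viability read by CCK-8 (4 h) absorbance at 450 nm, normalised to vehicle; IC50 from nonlinear regression.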

NCI-H929 cells = experiment: Cell viability assay (NCI-H929 cells), CCK-8; assay type: cell-based; settings: 5% FBS
Outline: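 NCI-H929 cells (20000/well) exposed to serially diluted compounds for 24 h at 37 °C, 5% CO2. Viability by CCK-8, absorbance at 450 nm after 1-4 h, normalized to vehicle-treated cells. IC50 by nonlinear regression.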

[2] = Microsome clearance assay, mouse; assay type: in vitro ADME; settings: 0.5 mg/ml protein, 1 mM NADPH, 60 minutes; for Mouse Liver Microsome Clint (μL/min/mg protein): mouse liver microsomes, 5 μM; for microsomal CLint at 5 μM: male, CD-1, mouse, pooled liver microsomes, pH 7.4, mouse liver microsomes, read-out: Mouse Liver Microsome Clint (μL/min/mg protein)
Outline: (§1)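 Pooled liver microsomes (human, male Wistar rat, male CD-1 mouse) at 0.5 mg/ml protein in 0.1M sodium phosphate pH 7.4 with 5 μM test compound and 1 mM NADPH, incubated 60 minutes. Reactions quenched in ice-cold methanol; supernatant analysed by LC/MS/MS (electrospray).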

[3] = Microsome clearance assay, rat; assay type: in vitro ADME; settings: 0.5 mg/ml protein, 1 mM NADPH, 60 minutes; for Rat Liver Microsome Clint (μL/min/mg protein): rat liver microsomes, 5 μM; for microsomal CLint at 5 μM: male, Wister, rat, pooled liver microsomes, pH 7.4, rat liver microsomes, read-out: Rat Liver Microsome Clint (μL/min/mg protein)
Outline: as §1

[4] = Microsome clearance assay, human; assay type: in vitro ADME; settings: 0.5 mg/ml protein, 1 mM NADPH, 60 minutes; for Human Liver Microsome Clint (μL/min/mg protein): human liver microsomes, 5 μM; for microsomal CLint at 5 μM: human, pooled liver microsomes, pH 7.4, human liver microsomes, read-out: Human Liver Microsome Clint (μL/min/mg protein)
Outline: as §1

MV-4-11 cells = experiment: MV-4-11 cell viability assay, CCK-8; assay type: cell-based
Protocol: MV-4-11 cells were obtained from American Type Culture Collection (ATCC). […]
The effect of representative Compounds of the Disclosure on cell viability was determined using Cell Counting Kit-8 (CCK-8) assay according to the manufacturer's instructions. 95 μL of MV-4-11 cell suspension (20000 cells/well) in culture medium were seeded into 96-well plates and cultured 4 hrs. Each tested compound was serially diluted in DMSO, then 5 μL of the compound or DMSO was diluted in 95 μL medium once more. At last, 5 μL of the compound dilution was added to the corresponding well of the cell plate. After the addition of the tested compound, the cells were incubated at 37° C. in an atmosphere of 5% CO2 for 24 hrs. At the end, 10 μL of CCK-8 solution was added to each well of the plate and incubated for 1-4 hrs. The plates were read at 450 nm on the microplate reader (BioTek Synergy 1MF). The readings were normalized to the vehicle cells, and the IC50 was calculated by nonlinear regression analysis using GraphPad Prism 6 software.

[5] = Kinetic solubility assay in PBS buffer; assay type: physicochemical; settings: for solubility: PBS buffer, pH 6.5, aqueous buffer, thermodynamic from solid, read-out: Solubility (pH 6.5, μg/mL)
Protocol: Representative Compounds of the Disclosure were tested in a kinetic solubility assay in PBS buffer. PBS buffer was prepared by dissolving 4.86 g of potassium dihydrogen phosphate and 5.09 g of disodium hydrogen phosphate dodecahydrate in 1 L of ultrapure water (final pH 6.5). 0.5 mg of test sample was dissolved in 1 mL of methanol and the stock solution was transferred into 2 mL EP tube, and evaporated at 50° C. for 3 h. To the tube was added 1 mL of PBS buffer and the mixture was stirred and shaken for 1-2 h. The solution was allowed to stand overnight and then filtered before HPLC analysis. Another 1.5 mg of the sample was dissolved in 3 mL of methanol to prepare a calibration curve with a series of concentration range of 5-500 μM. The solubility of each sample was determined by the measured peak area in HPLC.

[6] = read-out: MV-4-11 IC50 (5% FBS), MV-4-11 cells, 5% FBS, 24 hrs, CCK-8
[7] = Homo sapiens, MV4-11, 24 h, read-out: MV-4-11 IC50 (5% FBS, nM), MV-4-11 cells, 5% FBS, 24 hrs, CCK-8

Chain of Mcl-1 protein (residues 171-323) (Q07820 171-323): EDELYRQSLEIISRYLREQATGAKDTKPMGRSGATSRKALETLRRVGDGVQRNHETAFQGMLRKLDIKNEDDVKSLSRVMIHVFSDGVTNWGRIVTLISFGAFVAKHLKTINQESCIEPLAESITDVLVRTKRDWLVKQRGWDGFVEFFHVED

SMILES | IC50 [1] | IC50 (NCI-H929 cells; 24 hrs) | Mouse Liver Microsome Clint (μL/min/mg protein) [2] | Rat Liver Microsome Clint (μL/min/mg protein) [3] | Human Liver Microsome Clint (μL/min/mg protein) [4] | IC50 (MV-4-11 cells; [6]) | solubility [5] | IC50 (NCI-H929 cells; Homo sapiens, NCI-H929, 24 h) | IC50 (MV-4-11 cells; [7]) | microsomal CLint at 5 μM [2] | microsomal CLint at 5 μM [3] | microsomal CLint at 5 μM [4] | Solubility (pH 6.5, μg/mL) ([5]; PBS buffer pH 6.5) | IC50 (OPM-2 cells; 24 hours) | IC50 (OPM-2 cells; Homo sapiens, OPM-2, 24 h)
Cc1c(C(=O)O)n2c3ccc(Cl)c(c13)-c1c(nn(C)c1C)CSCc1cc(n(C)n1)CSc1cc(c3ccccc3c1)OCCC2 (atropisomer, axis not shown) [Cpd. No. 6, (R)-(Z)-1^5-chloro-1^3,2^1,2^5,6^1-tetramethyl-1^1H,2^1H,6^1H-10-oxa-4,8-dithia-1(4,1)-indola-2(4,3), 6(3,5)-dipyrazola-9(3,1)-naphthalenacyclotridecaphane-1^2-carboxylic acid] | 9 nM | 39 nM | 23.6 μL/min/mg protein | 21.0 μL/min/mg protein | <2.8 μL/min/mg protein | 29 nM |  |  |  |  |  |  |  | 136 nM | 
Cc1c(C(=O)O)n2c3ccc(Cl)c(c13)-c1c(nn(C)c1C)CSCc1cc(n(C)n1)CSc1cc(c3ccc(F)cc3c1)OCCC2 [Cpd. No. 14, (Z)-1^5-chloro-9^6-fluoro-1^3,2^1,2^5,6^1-tetramethyl-1^1H,2^1H,6^1E-10-oxa-4,8-dithia-1(4,1)-indola-2(4,3),6(3,5)-dipyrazola-9(3,1)-naphthalenacyclotridecaphane-1^2-carboxylic acid] | 19 nM | 28 nM | 28.6 μL/min/mg protein | 27.2 μL/min/mg protein | 5.0 μL/min/mg protein | 28 nM | 10 µg/mL (≈ 14.5 µM) |  |  |  |  |  |  | 52 nM | 
Cc1c(C(=O)O)n2c3ccc(Cl)c(c13)-c1c(nn(C)c1C)CSCc1cc(n(C)n1)CSc1cc(c3ccc(F)cc3c1)OCCC2 (atropisomer, axis not shown) [Cpd. No. 15, (R)-(Z)-1^5-chloro-9^6-fluoro-1^3,2^1,2^5,6^1-tetramethyl-1^1H,2^1H,6^1E-10-oxa-4,8-dithia-1(4,1)-indola-2(4,3),6(3,5)-dipyrazola-9(3,1)-naphthalenacyclotridecaphane-1^2-carboxylic acid] | 2 nM | 19 nM | 28.0 μL/min/mg protein | 19.6 μL/min/mg protein | <2.8 μL/min/mg protein | 5.4 nM |  |  |  |  |  |  |  | 52 nM | 
Cc1c(C(=O)O)n2c3ccc(Cl)c(c13)-c1c(nn3c1COCC3)CSCc1cc(n(C)n1)CSc1cc(c3ccc(F)cc3c1)OCCC2 [Cpd. No. 4, (Z)-1^5-chloro-9^6-fluoro-1^3,6^1-dimethyl-2^6,2^7-dihydro-1^1H,24H,6^1H-10-oxa-4,8-dithia-2(3,2)-pyrazolo[5,1-c][1,4]oxazina-1(4,1)-indola-6(3,5)-pyrazola-9(3,1)-naphthalenacyclotridecaphane-1^2-carboxylic acid] | 14 nM |  |  |  |  |  | < 1 µg/mL | 49 nM |  | 41.2 µL/min/mg | 19.8 µL/min/mg | 13.8 µL/min/mg |  |  | 438 nM
Cc1c(C(=O)O)n2c3ccc(Cl)c(c13)-c1c(nn(C)c1C)CSCc1cc(n(C)n1)CSc1cc(c3ccccc3c1)OCCC2 [Cpd. No. 5, (Z)-1^5-chloro-1^3,2^1,2^5,6^1-tetramethyl-1^1H,2^1H,6^1H-10-oxa-4,8-dithia-1(4,1)-indola-2(4,3), 6(3,5)-dipyrazola-9(3,1)-naphthalenacyclotridecaphane-1^2-carboxylic acid] | 17 nM | 33 nM | 48.4 μL/min/mg protein | 58.8 μL/min/mg protein | 15.8 μL/min/mg protein |  |  |  | 43 nM |  |  |  | 2 μg/mL | 192 nM | 

More lines, main results first:

IC50 [1] | IC50 (NCI-H929 cells; 24 hrs) | Mouse Liver Microsome Clint (μL/min/mg protein) [2] | Rat Liver Microsome Clint (μL/min/mg protein) [3] | Human Liver Microsome Clint (μL/min/mg protein) [4] | IC50 (MV-4-11 cells; [6]) | solubility [5] | IC50 (NCI-H929 cells; Homo sapiens, NCI-H929, 24 h) | IC50 (MV-4-11 cells; [7]) | microsomal CLint at 5 μM [2] | microsomal CLint at 5 μM [3] | microsomal CLint at 5 μM [4] | Solubility (pH 6.5, μg/mL) ([5]; PBS buffer pH 6.5) | SMILES | IC50 (OPM-2 cells; 24 hours) | IC50 (OPM-2 cells; Homo sapiens, OPM-2, 24 h)
14 nM |  |  |  |  |  |  | 611 nM | 45 nM |  |  |  |  | Cc1c(C(=O)O)n2c3ccc(C#N)c(c13)-c1c(nn(C)c1C)CSCc1cc(n(C)n1)CSc1cc(c3ccc(F)cc3c1)OCCC2 [Cpd. No. 20, (Z)-1^5-cyano-9^6-fluoro-1^3,2^1,2^5,6^1-tetramethyl-1^1H-1,2^1H,6^1H-10-oxa-4,8-dithia-1(4,1)-indola-2(4,3),6(3,5)-dipyrazola-9(3,1)-naphthalenacyclotridecaphane-1^2-carboxylic acid] |  | 613 nM
 |  |  |  |  |  | < 1 µg/mL | 47 nM | 29 nM | 20.8 µL/min/mg | 16.6 µL/min/mg | < 2.8 µL/min/mg |  | Cc1c2c(nn1C)CSCc1cc(n(C)n1)CSc1cc(c3ccccc3c1)OCCCc1c(C(=O)O)n(C)c3c-2c(Cl)ccc13 [AZD5991, (Z)-16-chloro-11,21,25,61-tetramethyl-11H,21H,61H-10-oxa-4,8-dithia-1(7,3)-indola-2(4,3),6(3,5)-dipyrazola-9(3,1)-naphthalenacyclotridecaphane-12-carboxylic acid, reference compound] |  | 148 nM
15 nM |  |  |  |  |  | < 1 µg/mL | 68 nM |  | 145 µL/min/mg | 35.4 µL/min/mg | 39.6 µL/min/mg |  | COCCn1nc2c(c1C)-c1c(Cl)ccc3c1c(C)c(C(=O)O)n3CCCOc1cc(cc3ccccc13)SCc1cc(nn1C)CSC2 [Cpd. No. 11, (Z)-1^5-chloro-2^1-(2-methoxyethyl)-1^3,2^5,6^1-trimethyl-1^1H,2^1H,6^1H-10-oxa-4,8-dithia-1(4,1)-indola-2(4,3),6(3,5)-dipyrazola-9(3,1)-naphthalenacyclotridecaphane-1^2-carboxylic acid] |  | 171 nM
36 nM | 213 nM | 35.0 μL/min/mg protein |  |  |  | > 400 µg/mL |  |  |  | 10.8 µL/min/mg | 4.4 µL/min/mg |  | Cc1c(C(=O)O)n2c3ccc(Cl)c(c13)-c1c(nn(C)c1C)CN(S(C)(=O)=O)Cc1cc(n(C)n1)CSc1cc(c3ccc(F)cc3c1)OCCC2 [Cpd. No. 32, (Z)-1^5-chloro-9^6-fluoro-1^3,2^1,2^5,6^1-tetramethyl-4-(methylsulfonyl)-1^1-H,2^1H, 6′H-10-oxa-8-thia-4-aza-1(4,1)-indola-2(4,3),6(3,5)-dipyrazola-9(3,1)-naphthalenacyclotridecaphane-1^2-carboxylic acid] | 542 nM | 
15 nM |  |  |  |  |  | < 1 µg/mL | 63 nM | 93 nM | 42 µL/min/mg | 22.6 µL/min/mg | 22.2 µL/min/mg |  | Cc1c(C(=O)O)n2c3ccc(Cl)c(c13)-c1c(nn(C)c1C(F)F)CSCc1cc(n(C)n1)CSc1cc(c3ccc(F)cc3c1)OCCC2 [Cpd. No. 18, (Z)-1^5-chloro-2^5-(difluoromethyl)-9^6-fluoro-1^3,2^1,6^1-trimethyl-1^1H,2^1H,6^1H-10-oxa-4,8-dithia-1(4,1)-indola-2(4,3),6(3,5)-dipyrazola-9(3,1)-naphthalenacyclotridecaphane-1^2-carboxylic acid] |  | 189 nM

Reference: patent US11691989B2, “Macrocyclic indoles as Mcl-1 inhibitors” (ASCENTAGE PHARMA (SUZHOU) CO., LTD., priority 2018, dated 2023)
